Source: patent US20080039410A1, “Inositol 1,4,5-Trisphosphate Receptor Mutants and Uses Thereof” (priority 2004, published 2008)
Entries after “also recorded” stand apart in the source; their conditions may differ.

Legend:
S2+ InsP3R-1 = experiment: CCh concentration-response of Ca2+ release in Dt-40 3ko cells expressing m3R and S2+ InsP3R-1 constructs; assay type: cell-based, rat; settings: for maximum peak Δ response to CCh: Fura-2 340/380 ratio; for fold change from WT (CCh EC50): S2 + InsP3R-1 constructs, Table 2; for EC50: fit of normalized initial peak, read-out: EC50 for CCh-induced Ca^2+ release
Text: The rat S2^+ InsP3R-1 in the expression plasmid pIRES-GFP was digested with the restriction endonuclease SalI. The overhang created by digestion was blunted by using T4 polymerase. An EcoRI linker was then ligated onto the blunted ends of the construct. The entire receptor DNA was excised from the plasmid using EcoRI and ligated into the plasmid MXT-1. The region containing the S2^− splice variant and potential PKA phosphorylation sites was excised from its backbone in pCDNA 3.1+ by RsrII and KasI and ligated into the InsP3R construct in MXT-1. The potential PKA phosphorylation sites Ser-1589 and Ser-1755 were mutated, individually in both splice variants and together in the S2^− splice variant, to alanines or glutamates by using sequential PCR mutagenesis. The outside primers used for the mutagenesis reaction flanked the restriction sites RsrII and KasI. Following mutation, the resulting fragments were cut with RsrII and KasI and inserted into the InsP3R-1 backbone at the corresponding sites. The mutations were confirmed by Big Dye fluorescent sequencing. Mutated receptor DNAs were excised from MXT-1 by using EcoRI and ligated into the mammalian expression vector pGW (provided by Dr. David Yue, Johns Hopkins University). Orientation was confirmed by using restriction enzyme digestion. Mutants were named based on the splice variant, either S2+ or S2− followed by the amino acid present at position 1589 and 1755. Thus, a mutation in S2^+ InsP3R-1 S1755E is designated, “S2+SE,” and in InsP3R-1 […] S1755A is designated “S2^−SA”. Similarly, an S2− InsP3R-1 with mutations in both S1589E and S1755E is designated “S2−EE”. The numbering of residues is based on the full-length rat InsP3R-1.
Dt-40 cells lacking all three InSP3 receptor subtypes were transfected by using electroporation at 350 V and 950 microfarads (4-mm gap cuvette). 2×10^7 cells were co-transfected with 25 μg of the InsP3R-1 cDNA, 25 μof the muscarinic type 3 (m3R) receptor DNA, and 4 μg of the red fluorescent protein plasmid pHcRed1-N1 (Clontech). Cells were incubated with DNA in 500 μl of Opti-MEM media (Invitrogen) on ice for 10 min. The cell/DNA mixture was electroporated, incubated on ice for 30 min, increased to 5 ml with Opti-MEM, and placed in a 5% CO2 incubator at 39° C. for 5 h. The cells were then centrifuged and resuspended in 12 ml of complete RPMI media (Invitrogen). Transfection efficiency was typically ˜20%. Experiments were performed within 32 h of transfection.
Transfected Dt-40 3ko cells were washed once in a HEPES-buffered physiological saline solution (HEPES-PSS) containing (in mM) 5.5 glucose, 137 NaCl, 0.56 MgCl2, 4.7 KCl, 1 Na2HPO4, 10 HEPES (pH 7.4), 1.2 CaCl2, and 1% w/v bovine serum albumin. Cells were then resuspended in bovine serum albumin HEPES-PSS with 1 μM Fura-2 (AM), placed on a 15-mm glass coverslip in a low volume perfusion chamber, and allowed to adhere for 30 min at room temperature. Cells were perfused continuously for 10 min with HEPES-PSS before experimentation to allow complete Fura-2 de-esterification. A field of cells for each experiment was chosen that contained a wide range of transfection efficiency based upon the intensity of red fluorescence emitted when excited at 560 nm. Individual cells that had emission gray levels between 1500 and 2500 were subsequently chosen to standardize expression levels. [Ca^2+]i imaging was performed essentially as described previously by using an inverted epifluorescence Nikon microscope with a 40× oil immersion objective lens (numerical aperture, 1.3) (100). Cells were excited alternately with light at 340 and 380±10 nm bandpass filters (Chroma, Rockingham, Vt.) using a monochrometer (TILL Photonics, Pleasanton, Calif.). Fluorescence images were captured and digitized with a digital camera driven by TILL Photonics software. Images were captured every 2 s with an exposure of 2 ms and 4 by 4 binning. 340/380 ratio images were calculated online and stored immediately to a hard disk. […]

S2− InsP3R-1 = experiment: Ca2+ oscillations after α-IgM antibody stimulation of Dt-40 3ko cells expressing S2− constructs; assay type: cell-based, rat; settings: for Ca^2+ signal pattern: 250 ng/ml α-IgM antibody (threshold)
Text: Cells transfected with WT and mutant S2− isoforms were stimulated with varying concentrations of an α-IgM antibody (Southern Biotechnology Associates, Inc., Birmingham, Ala.). Infrequent Ca^2+ oscillations were produced presumably through B cell receptor cross-linking, activation of phospholipase C-γ, and subsequent production of InsP3.
In many nonelectrically excitable cell types, the physiological mode of Ca^2+ signaling is through the generation of Ca^2+ oscillations (1, 108). Moreover, it is a generally held view that the spatial and temporal properties of Ca^2+ oscillations make an important contribution to defining the fidelity and specificity of Ca^2+ signaling. In many current models addressing the mechanism underlying Ca^2+ oscillations, a key feature is the regulation of Ca^2+ release through InsP3R. Experiments were then designed to assess the consequences of InsP3R-1 phosphorylation (expressed in isolation) on the initiation and generation of Ca^2+ oscillations. An α-IgM antibody was chosen to stimulate and to initiate Ca^2+ oscillations through activation of the endogenous B cell receptor, phospholipase C-γ activation, and the formation of InsP3. Dt-40 3ko cells expressing either S2−WT or S2−EE to mimic PKA phosphorylation of the InsP3R-1 were stimulated with various concentrations of α-IgM antibody as illustrated by the selection of representative traces in FIG. 24. […] This latter observation presumably reflects the fact that the frequency of oscillations is primarily defined by mechanisms such as Ca^2+ feedback (109) rather than the absolute sensitivity of the InsP3R-1 to InsP3 within a defined range. […] Given the almost ubiquitous expression of various forms of InsP3R-1, this is likely a generally important phenomenon. […] These include modulation of InSP3 binding, an idea supported by measurements of InsP3R binding in hepatocytes (112) (presumably S2− InsP3R-1 and InsP3R-2). In these studies the apparent affinity of InsP3 binding was enhanced ˜2-fold at resting [Ca^2+], and the [Ca^2+] necessary for half-maximal stimulation of InsP3 binding was reduced. In contrast, a study of recombinant S1−S2+InsP3R-1 expressed in SF9 cells and reconstituted into lipid bilayers has reported a similar increase in InsP3R sensitivity to InsP3 but that the bell-shaped Ca^2+ sensitivity of channel opening is not altered following phosphorylation of the InsP3R-1 (23). These findings indicate that modulation of the Ca^2+ sensitivity of channel activity is unlikely to account for the increased apparent sensitivity of the receptor, at least in this form of the InsP3R-1. There are a number of alternative mechanisms for altering InsP3R-1 sensitivity are conceivable. For example, phosphorylation of the receptor could alter the gating of the channel directly. In addition, phosphorylation might secondarily modulate the receptor by regulation of the association of regulatory factors such as proteins or adenine nucleotides (113-115).

Substance | maximum peak Δ response to CCh (S2+ InsP3R-1) [ratio units] | fold change from WT (CCh EC50) (S2+ InsP3R-1) [fold] | EC50 (S2+ InsP3R-1) [µM] | Ca^2+ signal pattern (S2− InsP3R-1) | fold more sensitive than S2+WT (CCh-induced Ca^2+ release) (S2+ InsP3R-1) [fold] | fold more sensitive than nonphosphorylatable S2+SA (S2+ InsP3R-1) [fold] | sensitivity of CCh-induced Ca^2+ release relative to other constructs (S2+ InsP3R-1) | latency before the increase in Ca^2+ versus S2−WT (S2− InsP3R-1; 500 ng/ml α-IgM antibody) | magnitude of the initial transient versus WT (S2− InsP3R-1; 500 ng/ml α-IgM antibody) | latency, frequency or initial peak magnitude versus S2−WT (S2− InsP3R-1; 1 μg/ml α-IgM antibody)
S2+ES: S2+ InsP3R-1, long splice variant with S1589E | 0.59±0.2 | 1.3 | 0.0237 ± 0.0012 | – | – | – | – | – | – | –
S2−WT: wild-type rat type-1 InsP3 receptor, peripheral short S2− splice variant (SEQ ID NO: 17) | – | – | – | single small increase in [Ca^2+]i after a long latency; also recorded: single Ca^2+ transient after a long latency | – | – | – | – | – | –
S2+SE: phosphomimetic S2+ InsP3R-1, long splice variant of S1755E | 0.59±0.1 | 8.9 | 0.0036 ± 0.0002 | – | ~9 | ~32 | increased sensitivity | – | – | –
S2−EE: phosphomimetic S1589E/S1755E mutant of the short splice variant | – | – | – | repetitive Ca^2+ transients following a much shorter latency; also recorded: multiple Ca^2+ transients | – | – | – | significantly shorter | significantly larger | indistinguishable
